{
  "source": "patent US7550599B2",
  "about": "“Water compatible sterically hindered alkoxyamines and hydroxy substituted alkoxyamines” (Ciba Specialty Chemicals Corporation, priority 2003, dated 2009)",
  "key": {"[1]": {"experiment": "Solubility in 50% butyl carbitol / 50% water", "assay_type": "physicochemical", "settings": "50% butyl carbitol / 50% water by weight; stirred 30 minutes", "description": "(§1) The solubility of the instant compounds is evaluated in polar solvent systems. A solution of 50% butyl carbitol by weight and 50% water by weight is prepared. The instant compounds are added to this solution, stirred for 30 minutes, and sampled for analysis. Samples containing bis(1-octyloxy-2,2,6,6-tetramethylpiperidin-4-yl)sebacate and 4-hydroxy-1-(2-hydroxy-2-methylpropoxy)-2,2,6,6-tetramethylpiperidine are filtered to remove any undissolved residue and all samples are analyzed by high pressure liquid chromatography or gas chromatography."}, "[2]": {"experiment": "Solubility in 50% butyl cellusolve / 50% water", "assay_type": "physicochemical", "settings": "50% butyl cellusolve / 50% water by weight; stirred 30 minutes", "description": "as §1, with “cellusolve” for “carbitol”, “solution” for “solution,”"}, "[3]": {"experiment": "Dye fading of shampoo under fluorescent light, Example 49", "settings": "Clairol Herbal Essences shampoo; fluorescent light aging; loading 0.30 wt %", "description": "(§2) The instant compounds are added to a commercial shampoo formulation and are evaluated for their ability to reduce the amount of dye fading when the samples are exposed to fluorescent lighting. The instant compounds (0.36 g) are dissolved in 5 mL of methanol which is then added to 120 g of shampoo (Clairol^R Herbal Essences Shampoo) with agitation. A benzotriazole UV absorber, 2-(2-hydroxy-3-tert-butyl-5-methylphenyl)-2H-benzotriazole-5-sulfonic acid, sodium salt (UVA), is optionally added to the shampoo formulation. The stabilized shampoo formulation is agitated for 15 minutes and put into 20 mL glass scintillation vials. These formulations are weathered under fluorescent light aging at ambient temperature. The CIEL*a*b coordinates before and after exposure are measured using X-Rite 938 Spectrodensitometer. Color change is expressed as Delta E (DE)."}, "[4]": {"experiment": "Dye fading of shampoo under fluorescent light, Example 48", "settings": "Suave shampoo; fluorescent light aging, ambient temperature; loading 0.30 wt %", "description": "as §2, with “(Suave^R Natural^R, Fresh Mountain Strawberry)” for “(Clairol^R Herbal Essences Shampoo)”, “formulation at an equivalent concentration.” for “formulation.”"}, "[5]": {"experiment": "Ink jet media light fastness, cyan, Example 38", "settings": "100% print density; office fluorescent lighting; total stabilizer 650-700 mg/m2, mixtures 1:1 by weight", "description": "(§3) A resin-coated paper impregnated with inorganic adsorbent particles (Konica QP Photoglossy ink jet paper, Konica Corp.) is purchased. On the ink-receiving layer, a 0.8 wt % methanol solution of the instant compounds is applied in an amount to achieve 650-700 mg/m^2. The paper is allowed to dry under ambient temperature and pressure for 24 hours. Separately, test patterns (cyan and yellow) are printed on the treated sheets using a Hewlett Packard DeskJet 970 Cxi printer at 100% print density. The obtained prints are left to dry at ambient temperature and pressure for 24 hours. Color densities and CIEL*a*b coordinates before and after exposure are measured using X-Rite 938 Spectrodensitometer. Exposures are carried out using normal office fluorescent lighting."}, "[6]": {"experiment": "Ink jet media light fastness, yellow, Example 38", "settings": "100% print density; office fluorescent lighting; total stabilizer 650-700 mg/m2, mixtures 1:1 by weight", "description": "as §3"}, "[7]": {"experiment": "Ink jet media light fastness, cyan, Example 31", "settings": "100% print density; office fluorescent lighting; 650-700 mg/m2", "description": "as §3, with “mg/m^2, unless otherwise stated.” for “mg/m^2.”, “(cyan)” for “(cyan and yellow)”"}, "[8]": {"experiment": "Ink jet media light fastness, magenta, Example 35", "settings": "50% print density, office fluorescent lighting", "description": "as §3, with “mg/m^2, unless otherwise stated.” for “mg/m^2.”, “(magenta)” for “(cyan and yellow)”, “50%” for “100%”"}, "[9]": {"experiment": "Ink jet media light fastness, cyan, Example 34", "settings": "50% print density, office fluorescent lighting", "description": "as §3, with “mg/m^2, unless otherwise stated.” for “mg/m^2.”, “(cyan)” for “(cyan and yellow)”, “50%” for “100%”"}, "[10]": {"experiment": "Ink jet media light fastness, magenta, Example 32", "settings": "100% print density, office fluorescent lighting", "description": "as §3, with “mg/m^2, unless otherwise stated.” for “mg/m^2.”, “(magenta)” for “(cyan and yellow)”"}, "[11]": {"experiment": "Dye fading of mouthwash under fluorescent light, Example 50", "settings": "Scope Original Mint mouthwash; fluorescent light aging; loading 0.30 wt %", "description": "as §2, with “mouthwash” for “shampoo”, “mouthwash (Scope^R Original Mint)” for “shampoo (Clairol^R Herbal Essences Shampoo)”"}},
  "data": [
    {"smiles": "CC(NC1CC(C)(C)N(OCC(C)(C)O)C(C)(C)C1)C(=O)[O-].[K+]", "note": "(stereo not drawn) [Example 5]", "values": [
      {"measurement": "Solubility (% by weight)", "setting": "[1]", "result": "≧15 % by weight"},
      {"measurement": "Solubility (% by weight)", "setting": "[2]", "result": "≧18 % by weight"},
      {"measurement": "DE after 2 weeks", "setting": "[3]", "result": 1.55}
    ]},
    {"smiles": "CC(C)(O)CON1C(C)(C)CC(OC(=O)CCC(=O)O)CC1(C)C", "note": "[Example 17]", "values": [
      {"measurement": "DE after 2 weeks", "setting": "[4]", "result": 8.91}
    ]},
    {"smiles": "CC(=O)NCC(=O)NC1CC(C)(C)N(OCC(C)(C)O)C(C)(C)C1", "note": "[Example 37]", "values": [
      {"measurement": "DE for cyan after 3 months", "setting": "[5]", "result": 11.39},
      {"measurement": "DE for yellow after 3 months", "setting": "[6]", "result": 2.96}
    ]},
    {"smiles": "CN(C)CCNC1CC(C)(C)N(OCC(C)(C)O)C(C)(C)C1", "note": "[Example 6]", "values": [
      {"measurement": "DE after 2 weeks", "setting": "[4]", "result": 7.53}
    ]},
    {"smiles": "Cl.ON(Cc1ccccc1)Cc1ccccc1", "note": "[Compound A, N,N-dibenzylhydroxylamine hydrochloride, reference compound]", "values": [
      {"measurement": "DE for cyan after 3 months", "setting": "[5]", "result": 11.96},
      {"measurement": "DE for yellow after 3 months", "setting": "[6]", "result": 5.31}
    ]},
    {"smiles": "CC(C)(O)CON1C(C)(C)CC(N)CC1(C)C", "note": "[Example 7]", "values": [
      {"measurement": "DE for cyan after 4 weeks", "setting": "[7]", "result": 4.27},
      {"measurement": "DE for magenta after 4 weeks", "setting": "[8]; 650-700 mg/m2", "result": 16.62},
      {"measurement": "DE for magenta after 4 weeks", "setting": "[8]; (2x) 1300 to 1400 mg/m2", "result": 14.14},
      {"measurement": "DE for magenta after 4 weeks", "setting": "[8]; (3x) 1950 to 2100 mg/m2", "result": 8.60},
      {"measurement": "DE for cyan after 4 weeks", "setting": "[9]; 650-700 mg/m2", "result": 5.85},
      {"measurement": "DE for cyan after 4 weeks", "setting": "[9]; (2x) 1300 to 1400 mg/m2", "result": 4.95},
      {"measurement": "DE for cyan after 4 weeks", "setting": "[9]; (3x) 1950 to 2100 mg/m2", "result": 4.34},
      {"measurement": "DE after 2 weeks", "setting": "[3]", "result": 3.96},
      {"measurement": "DE for magenta after 4 weeks", "setting": "[10]; 650-700 mg/m2", "result": 20.78},
      {"measurement": "DE for magenta after 4 weeks", "setting": "[10]; (2x) 1300 to 1400 mg/m2", "result": 19.52},
      {"measurement": "DE for magenta after 4 weeks", "setting": "[10]; (3x) 1950 to 2100 mg/m2", "result": 12.99}
    ]},
    {"smiles": "CC(C)(O)CON1C(C)(C)CC(OC(=O)C(C)(C)O)CC1(C)C", "note": "[Example 18]", "values": [
      {"measurement": "DE after 2 weeks", "setting": "[11]", "result": 5.11}
    ]}
  ]
}
